Assay results reported in patent US20200216441A1, “PESTICIDALLY ACTIVE HETEROCYCLIC DERIVATIVES WITH SULFUR CONTAINING SUBSTITUENTS” (SYNGENTA PARTICIPATIONS AG, priority 2017, published 2020).

How the values were obtained:
[1] = tested on: Myzus persicae (Green Peach Aphid); test: whole plant or invertebrate; settings: foliar, 144 h
[2] = tested on: Diabrotica Balteata (Corn Root Worm); test: Diabrotica balteata (Corn Root Worm); settings: in Zea mays, 96 h, read-out: effect in at least one of the two categories (mortality or growth inhibition)
[3] = tested on: Plutella xylostella (Diamond Back Moth); test: whole plant or invertebrate; assay type: in vivo; settings: 120 h, application rate of 200 ppm, L2 larvae on treated artificial diet, 5 days after infestation, read-out: effect in at least one of the two categories (mortality or growth inhibition)
[4] = tested on: Euschistus heros (Neotropical Brown Stink Bug); test: whole plant or invertebrate; assay type: in vivo; settings: 120 h, application rate of 200 ppm, N2 nymphs on sprayed soybean leaves, 5 days after infestation, read-out: effect in at least one of the two categories (mortality or growth inhibition)
[5] = tested on: Myzus persicae (Green Peach Aphid); test: whole plant or invertebrate; assay type: in vivo; settings: 144 h, test rate of 24 ppm, systemic, roots of infested pea seedlings in test solution, 6 days
[6] = tested on: Spodoptera littoralis (Egyptian Cotton Leaf Worm); test: whole plant or invertebrate; settings: in Gossypium barbadense, foliar, 72 h, read-out: control (mortality, anti-feeding effect, growth inhibition)

CCS(=O)(=O)c1cc(OC2COC2)cnc1-c1nc2cc(C(F)(F)F)ncc2n1C [Compound P1, 2-[3-ethylsulfonyl-5-(oxetan-3-yloxy)-2-pyridyl]-3-methyl-6-(trifluoromethyl)imidazo[4,5-c]pyridine]
≥ 80%: mortality at 200 ppm [1] | mortality at 200 ppm [2] | percent effect (mortality or growth inhibition) at 200 ppm [3] | percent effect (mortality or growth inhibition) at 200 ppm [4] | mortality at 24 ppm [5]

CCS(=O)(=O)c1cc(OC2(C)COC2)cnc1-c1nc2cc(C(F)(F)F)ncc2n1C [Compound P4, 2-[3-ethylsulfonyl-5-(3-methyloxetan-3-yl)oxy-2-pyridyl]-3-methyl-6-(trifluoromethyl)imidazo[4,5-c]pyridine]
≥ 80%: mortality at 200 ppm [1] | mortality at 200 ppm [2] | percent effect (mortality or growth inhibition) at 200 ppm [3] | percent effect (mortality or growth inhibition) at 200 ppm [4] | mortality at 24 ppm [5]

CCS(=O)(=O)c1cc(OC(F)(F)C(=O)N(C)C)cnc1-c1nc2cc(C(F)(F)F)ncc2n1C [Compound P6, 2-[[5-ethylsulfonyl-6-[3-methyl-6-(trifluoromethyl)imidazo[4,5-c]pyridin-2-yl]-3-pyridyl]oxy]-2,2-difluoro-N,N-dimethyl-acetamide]
≥ 80%: mortality at 200 ppm [1] | mortality at 200 ppm [2] | percent effect (mortality or growth inhibition) at 200 ppm [3] | percent effect (mortality or growth inhibition) at 200 ppm [4] | mortality at 24 ppm [5]

CCOc1cnc(-c2nc3cc(C(F)(F)F)ncc3n2C)c(S(=O)(=O)CC)c1 [Compound P12, 2-(5-ethoxy-3-ethylsulfonyl-2-pyridyl)-3-methyl-6-(trifluoromethyl)imidazo[4,5-c]pyridine]
≥ 80%: mortality at 200 ppm [1] | mortality at 200 ppm [2] | percent effect (mortality or growth inhibition) at 200 ppm [3] | mortality at 24 ppm [5] | mortality at 200 ppm [6]

CCSc1cc(OC(C)C)cnc1-c1nc2cc(C(F)(F)F)ncc2n1C [Compound P27, 2-(3-ethylsulfanyl-5-isopropoxy-2-pyridyl)-3-methyl-6-(trifluoromethyl)imidazo[4,5-c]pyridine]
≥ 80%: mortality at 200 ppm [1] | mortality at 200 ppm [2] | percent effect (mortality or growth inhibition) at 200 ppm [3] | mortality at 200 ppm [6]

CCS(=O)(=O)c1cc(O[C@H]2C[C@H](OC)C2)cnc1-c1nc2cc(C(F)(F)F)ncc2n1C [Compound P45, 2-[3-ethylsulfonyl-5-(3-methoxycyclobutoxy)-2-pyridyl]-3-methyl-6-(trifluoromethyl)imidazo[4,5-c]pyridine]
≥ 80%: mortality at 200 ppm [1] | percent effect (mortality or growth inhibition) at 200 ppm [3] | percent effect (mortality or growth inhibition) at 200 ppm [4] | mortality at 24 ppm [5] | mortality at 200 ppm [6]

CCS(=O)(=O)c1cc(OC(C)(C)COC)cnc1-c1nc2cc(C(F)(F)F)ncc2n1C [Compound P48, 2-[3-ethylsulfonyl-5-(2-methoxy-1,1-dimethyl-ethoxy)-2-pyridyl]-3-methyl-6-(trifluoromethyl)imidazo[4,5-c]pyridine]
≥ 80%: mortality at 200 ppm [1] | percent effect (mortality or growth inhibition) at 200 ppm [3] | mortality at 24 ppm [5]

CCS(=O)(=O)c1cc(OC(C)(C)CS(C)(=O)=O)cnc1-c1nc2cc(C(F)(F)F)ncc2n1C [Compound P49, 2-[5-(1,1-dimethyl-2-methylsulfonyl-ethoxy)-3-ethylsulfonyl-2-pyridyl]-3-methyl-6-(trifluoromethyl)imidazo[4,5-c]pyridine]
≥ 80%: mortality at 200 ppm [1] | percent effect (mortality or growth inhibition) at 200 ppm [3] | percent effect (mortality or growth inhibition) at 200 ppm [4] | mortality at 24 ppm [5]

CCS(=O)(=O)c1cc(OCC2(C)COC2)cnc1-c1nc2cc(C(F)(F)F)ncc2n1C [Compound P54, 2-[3-ethylsulfonyl-5-[(3-methyloxetan-3-yl)methoxy]-2-pyridyl]-3-methyl-6-(trifluoromethyl)imidazo[4,5-c]pyridine]
≥ 80%: mortality at 200 ppm [1] | percent effect (mortality or growth inhibition) at 200 ppm [4] | mortality at 24 ppm [5]

CCS(=O)(=O)c1cc(OCC(C)=O)cnc1-c1nc2cc(C(F)(F)F)ncc2n1C [Compound P65, 1-[[5-ethylsulfonyl-6-[3-methyl-6-(trifluoromethyl)imidazo[4,5-c]pyridin-2-yl]-3-pyridyl]oxy]propan-2-one]
≥ 80%: mortality at 200 ppm [1] | mortality at 200 ppm [2] | percent effect (mortality or growth inhibition) at 200 ppm [3] | percent effect (mortality or growth inhibition) at 200 ppm [4] | mortality at 24 ppm [5]

CCS(=O)(=O)c1cc(OCC2CCC2)cnc1-c1nc2cc(C(F)(F)F)ncc2n1C [Compound P69, 2-[5-(cyclobutylmethoxy)-3-ethylsulfonyl-2-pyridyl]-3-methyl-6-(trifluoromethyl)imidazo[4,5-c]pyridine]
≥ 80%: mortality at 200 ppm [1] | mortality at 200 ppm [2] | percent effect (mortality or growth inhibition) at 200 ppm [4] | mortality at 200 ppm [6]

CCSc1cc(OC(C)C)cnc1-c1nc2cc(S(=O)(=O)C(F)(F)F)ncc2n1C [Compound P73, 2-(3-ethylsulfanyl-5-isopropoxy-2-pyridyl)-3-methyl-6-(trifluoromethylsulfonyl)imidazo[4,5-c]pyridine]
≥ 80%: mortality at 200 ppm [1] | mortality at 200 ppm [2] | percent effect (mortality or growth inhibition) at 200 ppm [3] | percent effect (mortality or growth inhibition) at 200 ppm [4] | mortality at 200 ppm [6]

CCSc1cc(OC(C)C)cnc1-c1nc2cc(SC(F)(F)F)ncc2n1C [Compound P74, 2-(3-ethylsulfanyl-5-isopropoxy-2-pyridyl)-3-methyl-6-(trifluoromethylsulfanyl)imidazo[4,5-c]pyridine]
≥ 80%: mortality at 200 ppm [1] | mortality at 200 ppm [2] | percent effect (mortality or growth inhibition) at 200 ppm [3] | percent effect (mortality or growth inhibition) at 200 ppm [4] | mortality at 200 ppm [6]

CCS(=O)(=O)c1cc(OCS(C)(=N)=O)cnc1-c1nc2cc(C(F)(F)F)ncc2n1C (stereo not drawn) [Compound P80, [5-ethylsulfonyl-6-[3-methyl-6-(trifluoromethyl)imidazo[4,5-c]pyridin-2-yl]-3-pyridyl]oxymethyl-imino-methyl-oxo-$|^6-sulfane]
≥ 80%: mortality at 200 ppm [1] | percent effect (mortality or growth inhibition) at 200 ppm [4] | mortality at 24 ppm [5]

CCSc1cc(OCC(F)F)cnc1-c1nc2cc(C(F)(F)F)ncc2n1C [Compound P81, 2-[5-(2,2-difluoroethoxy)-3-ethylsulfanyl-2-pyridyl]-3-methyl-6-(trifluoromethyl)imidazo[4,5-c]pyridine]
≥ 80%: mortality at 200 ppm [2] | percent effect (mortality or growth inhibition) at 200 ppm [3] | percent effect (mortality or growth inhibition) at 200 ppm [4] | mortality at 24 ppm [5] | mortality at 200 ppm [6]

C#CC(C)(C)Oc1cnc(-c2nc3cc(C(F)(F)F)ncc3n2C)c(SCC)c1 [Compound P82, 2-[5-(1,1-dimethylprop-2-ynoxy)-3-ethylsulfanyl-2-pyridyl]-3-methyl-6-(trifluoromethyl)imidazo[4,5-c]pyridine]
≥ 80%: mortality at 200 ppm [2] | percent effect (mortality or growth inhibition) at 200 ppm [4] | mortality at 200 ppm [6]

CCOC(=O)Oc1cnc(-c2nc3cc(C(F)(F)F)ncc3n2C)c(S(=O)(=O)CC)c1 [Compound P84, ethyl [5-ethylsulfonyl-6-[3-methyl-6-(trifluoromethyl)imidazo[4,5-c]pyridin-2-yl]-3-pyridyl] carbonate]
≥ 80%: mortality at 200 ppm [6]

CCS(=O)(=O)c1cc(OS(=O)(=O)C(F)(F)F)cnc1-c1nc2cc(C(F)(F)F)ncc2n1C [Compound P92, [5-ethylsulfonyl-6-[3-methyl-6-(trifluoromethyl)imidazo[4,5-c]pyridin-2-yl]-3-pyridyl] trifluoromethanesulfonate]
≥ 80%: mortality at 200 ppm [6]

CCS(=O)(=O)c1cc(O/N=C(\C)c2cc(F)cc(F)c2)cnc1-c1nc2cc(C(F)(F)F)ncc2n1C [Compound P96, (E)-1-(3,5-difluorophenyl)-N-[[5-ethylsulfonyl-6-[3-methyl-6-(trifluoromethyl)imidazo[4,5-c]pyridin-2-yl]-3-pyridyl]oxy]ethanimine]
≥ 80%: mortality at 200 ppm [2] | percent effect (mortality or growth inhibition) at 200 ppm [3] | percent effect (mortality or growth inhibition) at 200 ppm [4] | mortality at 200 ppm [6]

CCS(=O)(=O)c1cc(OC(F)(F)F)cnc1-c1nc2cc(C(F)(F)F)ncc2n1C [Compound P98, 2-[3-ethylsulfonyl-5-(trifluoromethoxy)-2-pyridyl]-3-methyl-6-(trifluoromethyl)imidazo[4,5-c]pyridine]
≥ 80%: mortality at 200 ppm [2] | percent effect (mortality or growth inhibition) at 200 ppm [3] | percent effect (mortality or growth inhibition) at 200 ppm [4] | mortality at 200 ppm [6]

CCS(=O)(=O)c1cc(OCCS(C)(=O)=O)ccc1-c1nc2cc(C(F)(F)F)ncc2n1C [Compound P102, 2-[2-ethylsulfonyl-4-(2-methylsulfonylethoxy)phenyl]-3-methyl-6-(trifluoromethyl)imidazo[4,5-c]pyridine]
≥ 80%: mortality at 200 ppm [1] | percent effect (mortality or growth inhibition) at 200 ppm [4] | mortality at 24 ppm [5]

CCS(=O)(=O)c1cc(OC(C)C)ccc1-c1nc2cc(C(F)(F)F)ncc2n1C [Compound P108, 2-(2-ethylsulfonyl-4-isopropoxy-phenyl)-3-methyl-6-(trifluoromethyl)imidazo[4,5-c]pyridine]
≥ 80%: mortality at 200 ppm [1] | mortality at 200 ppm [2] | percent effect (mortality or growth inhibition) at 200 ppm [3] | percent effect (mortality or growth inhibition) at 200 ppm [4] | mortality at 200 ppm [6]
